Data from patent US20240352040A1, “CRYSTAL FORM OF RIPK1 INHIBITOR, ACID SALT THEREOF, AND CRYSTAL FORM OF ACID SALT THEREOF” (GENFLEET THERAPEUTICS (SHANGHAI) INC., priority 2021, published 2024).
Converted amounts (≈) assume the structure as drawn. Counter-ions that a name gives are not always drawn. Like-named read-outs stand apart in the source and are kept apart here.

What was measured:
[1] = Rough solubility in different solvent systems at room temperature; type: physicochemical
Method: The rough solubility of the free base anhydrous crystal form A of the compound of formula I obtained in Example 1 and the monohydrate crystal form C of the sulfate salt of the compound of formula I obtained in Example 4 was tested in different solvent systems at room temperature. About 2 mg of the solid sample was weighed into an HPLC vial, and then the corresponding solvent was gradually (50/50/200/700 μL in sequence) added thereto and shaken until the solid dissolved to clear. If the sample was still not dissolved to clear after the addition of 1 mL of solvent, no more solvent would be added. The rough solubility ranges calculated from the mass of the solid sample, the volume of the added solvent, and the observed dissolution phenomena are shown in Table 25-1 and Table 25-2.

[2] = as above; type: physicochemical; conditions: 50 °C, organic solvent or mixture, thermodynamic from solid, *Dissolve to clear at 50° C.
L929 cells = assay: Inhibition of TNF-α-induced programmed necrosis of L929 cells, CellTiter-Glo; type: cell-based; conditions: 30 ng/mL mouse TNF-α + 15 μM Z-VAD, 6 hours, read-out: inhibitory IC50 against programmed necroptosis of cells induced by TNF-α
Method: (§1) The U937 cell line used in the following test examples was derived from ATCC, No.: CRL-1593.2, batch No.: 63479999, culture medium: RPMI-1640+10% FBS. The L929 cell line used in the following test examples was derived from ATCC, No.: CCL-1, batch No.: 70001022, culture medium: MEM+10% FBS+1% PS. […]
The compound was dissolved in DMSO to prepare a 10 mM stock solution and diluted 3.16-fold with DMSO to a series of gradient concentrations. […] After sufficient lysis reaction, the chemiluminescence readings were recorded by a microplate reader. The survival rate was calculated from the detection results using the equation as follows: SR (%)=(RLU compound−RLU blank)/(RLU high control−RLU blank)×100%. […]

RIPK1 = molecular target: T1, RIPK1 (Homo sapiens, UniProt Q13546); assay: Inhibitory activity against RIPK1 enzyme, P33-ATP / MBP substrate radiometric assay; type: biochemical; conditions: 36 nM RIPK1, 0.33 mg/mL MBP, 155 μM P33 ATP, 2 hours room temperature
T1 construct: purchased Eurofins 16-022
T1 sequence (Q13546 1-671): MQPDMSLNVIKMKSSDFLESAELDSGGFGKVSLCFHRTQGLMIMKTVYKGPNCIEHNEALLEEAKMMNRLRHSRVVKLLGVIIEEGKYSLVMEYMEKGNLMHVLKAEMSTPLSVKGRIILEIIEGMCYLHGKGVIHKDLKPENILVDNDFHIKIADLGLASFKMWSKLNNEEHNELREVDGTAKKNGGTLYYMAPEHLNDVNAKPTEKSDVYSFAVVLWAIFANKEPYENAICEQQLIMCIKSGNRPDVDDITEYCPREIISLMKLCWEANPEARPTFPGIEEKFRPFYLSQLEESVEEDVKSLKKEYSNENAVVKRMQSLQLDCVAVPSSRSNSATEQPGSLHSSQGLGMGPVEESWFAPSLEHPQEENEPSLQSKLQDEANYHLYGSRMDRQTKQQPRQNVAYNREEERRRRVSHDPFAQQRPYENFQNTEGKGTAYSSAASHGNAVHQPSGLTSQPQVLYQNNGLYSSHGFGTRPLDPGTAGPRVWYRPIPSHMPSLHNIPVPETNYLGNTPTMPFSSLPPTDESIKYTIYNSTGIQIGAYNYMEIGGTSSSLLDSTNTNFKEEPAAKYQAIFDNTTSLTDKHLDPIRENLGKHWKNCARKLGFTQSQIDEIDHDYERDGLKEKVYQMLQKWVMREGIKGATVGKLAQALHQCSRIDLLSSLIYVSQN
Method: as §1
The test compound was dissolved in DMSO to prepare a 10 mM stock solution, and diluted 3.16-fold with DMSO to a series of gradient concentrations. […] The final reaction system was detected using a liquid scintillation counter after treatment. The result after detection was subtracted from the blank control and converted to the percentage of activity compared with the reading of the control group. […]

U937 cells = assay: Inhibition of TNF-α-induced programmed cell necrosis (necroptosis) in U937 cells, CellTiter-Glo; type: cell-based; conditions: U-937, human TNF-α + Q-VD-Oph, 48 hours, read-out: inhibitory IC50 against programmed necroptosis of cells induced by TNF-α
Excerpt: The U937 cell line used in the following test examples was derived from ATCC, No.: CRL-1593.2, batch No.: 63479999, culture medium: RPMI-1640+10% FBS. The L929 cell line used in the following test examples was derived from ATCC, No.: CCL-1, batch No.: 70001022, culture medium: MEM+10% FBS+1% PS. The reagents used, their suppliers, and item numbers are as follows: RPMI-1640, Gibco, 11875-093; FBS, Gibco, 10099-141; Trypsin-EDTA, Gibco, 25200-072; PS, Gibco, 15140-122; CellTiter Glo, Promega, G7573; DMSO, VWR AMRESCO, 0231-500ML; TNF-α protein (human, recombinant), Peprotech, 300-01A; Q-VD-Oph, MCE, HY-12305; V-bottom plate, Corning, 3894; 384-well low flange white flat bottom microplate, Corning, 3570; RIPK1, Eurofins, 16-022; MOPS, BDH, 441644J; EDTA, Sigma, E5134; myelin basic protein, Sigma, M1891-25.00 MG; magnesium acetate, Merck, DU008026; ATP (non-radioactive labelled), Sigma, A-7699; ATP (radioactive labelled), Hartmann Analytic, DU008054; phosphoric acid, Metlab, DU003000; Z-VAD: Shanghai Twochem, YA02401.
The test compound was dissolved in DMSO and diluted to a series of concentration gradients with DMSO. […] After sufficient lysis reaction, the chemiluminescence readings were recorded by a microplate reader. The survival rate was calculated from the detection results using the equation as follows: SR (%)=(RLU compound−RLU blank)/(RLU high control−RLU blank)×100%. […]

[3] = Hygroscopicity by dynamic vapor sorption (DVS) at 25° C.; type: physicochemical
Method: (3) Dynamic vapor sorption (DVS): Dynamic vapor sorption (DVS) curves were collected on DVS Intrinsic from SMS (surface measurement systems). The relative humidity at 25° C. was corrected using the deliquescence points of LiCl, Mg(NO3)2, and KCl.
The hygroscopicity of the sample of the monohydrate crystal form C of the sulfate salt obtained in […] was evaluated through the DVS test from 0% RH to […] at 25° C.

[4] = Solid state stability (XRPD crystal form, HPLC purity); type: physicochemical; conditions: for Purity / Purity/initial purity / Initial purity: HPLC; for Crystal form transition: XRPD; for Initial purity: before the stability test, monohydrate crystal form C of sulfate salt
Method: (6) High performance liquid chromatography (HPLC): Purity and solubility in the test were determined by Agilent 1260 high performance liquid chromatograph, and the analytical conditions are shown in Table 4.
Appropriate amounts of the samples of the monohydrate crystal form C of the sulfate salt […], and then placed for one week in an open state of 40° C./75% RH. Solid samples separated under different conditions were respectively subjected to XRPD test to evaluate the transition of crystal forms, and subjected to HPLC test to evaluate purity and chemical stability.

[5] = Suspension competition test between crystal forms of the sulfate salt (anhydrous/hydrate transformation relationship); type: physicochemical
Method: A suspension competition test between the anhydrous crystal form A of the sulfate salt obtained in Example 5 and the anhydrous crystal form D of the sulfate salt obtained in Example 19 was set up, including conditions of 5° C., 25° C., and 50° C. in methanol and 25° C. in ACN. (Test numbers are from A1 to A4)
A suspension competition test between the monohydrate crystal form C of the sulfate salt obtained in Example 4 and the anhydrous crystal form A of the sulfate salt obtained in Example 5 was set up at room temperature, including a suspension competition test in ACN/H2O (aw=0/0.2/0.4/0.6/0.8) of different water activities at room temperature. (Test numbers are from B1 to B5)
The specific steps are as follows: 1) saturated solutions of sulfate salt in different solvent systems at room temperature were prepared; 2) equal mass of the corresponding samples of crystal form of sulfate salt (about 5 mg each) were added to 1 mL of saturated solution to form a suspension, respectively; 3) the suspension was magnetically stirred at corresponding temperature; 4) the remaining solid was separated and tested by XRPD.

[6] = 40° C./75% RH/1 week, open, listed as Example 4
[7] = 40° C./75% RH/1 week, open, listed as Example 9
[8] = 60° C./sealed/1 week, listed as Example 4
[9] = 60° C./sealed/1 week, listed as Example 9
[10] = sealed 24 hours at 60° C., open one week at 40° C./75% RH, two batches

**Q.** With `Nc1nc2cc(-c3cnc4c(c3)C(=O)N(Cc3cc(OC(F)(F)F)ccc3F)CC4)ccn2n1` as the molecule, how does the solubility ([1]; dimethyl sulfoxide, organic solvent or mixture, thermodynamic from solid, Dimethyl sulfoxide, read-out: Solubility) read?
**A.** The solubility was greater than 42000 µg/mL.

**Q.** And the solubility ([2]; isopropanol)?
**A.** The solubility was less than 2400 µg/mL.

**Q.** With `Nc1nc2cc(-c3cnc4c(c3)C(=O)N(Cc3cc(OC(F)(F)F)ccc3F)CC4)ccn2n1` [compound of formula I, 3-(2-amino-[1,2,4]triazolo[1,5-a]pyridin-7-yl)-6-(2-fluoro-5-(trifluoromethoxy)benzyl)-7,8-dihydro-1,6-naphthyridin-5(6H)-one] as the molecule, how does the IC50 (L929 cells) read?
**A.** The IC50 was 3 nM.

**Q.** What about the IC50 (RIPK1) of the same molecule?
**A.** The IC50 was 39 nM.

**Q.** And the IC50 (U937 cells)?
**A.** The IC50 was 6 nM.

**Q.** With `Nc1nc2cc(-c3cnc4c(c3)C(=O)N(Cc3cc(OC(F)(F)F)ccc3F)CC4)ccn2n1` [free base anhydrous crystal form A, 3-(2-amino-[1,2,4]triazolo[1,5-a]pyridin-7-yl)-6-(2-fluoro-5-(trifluoromethoxy)benzyl)-7,8-dihydro-1,6-naphthyridin-5(6H)-one] as the molecule, how does the solubility ([1]; Methanol) read?
**A.** The solubility was “S < 1.8 mg/mL”.

**Q.** What about the solubility ([1]; acetone, organic solvent or mixture, thermodynamic from solid, Acetone, read-out: Solubility) of the same molecule?
**A.** Its solubility is less than 1800 µg/mL.

**Q.** And the solubility ([1]; acetonitrile, organic solvent or mixture, thermodynamic from solid, Acetonitrile, read-out: Solubility)?
**A.** Its solubility is less than 1900 µg/mL.

**Q.** And the solubility ([1]; ethanol, organic solvent or mixture, thermodynamic from solid, Ethanol, read-out: Solubility)?
**A.** The solubility was less than 2200 µg/mL.

**Q.** What about the solubility ([1]; isopropanol, organic solvent or mixture, thermodynamic from solid, Isopropanol, read-out: Solubility) of the same molecule?
**A.** Its solubility is less than 1900 µg/mL.

**Q.** And the solubility ([1]; n-heptane, organic solvent or mixture, thermodynamic from solid, n-Heptane, read-out: Solubility)?
**A.** Its solubility is less than 1700 µg/mL.

**Q.** What about the solubility ([1]; water, thermodynamic from solid, Water, read-out: Solubility) of the same molecule?
**A.** Its solubility is less than 2100 µg/mL.

**Q.** And the solubility ([2]; dimethyl sulfoxide)?
**A.** The solubility was 7700 to 23000 µg/mL (≈ 16.3 to 48.7 mM).

**Q.** With `Nc1nc2cc(-c3cnc4c(c3)C(=O)N(Cc3cc(OC(F)(F)F)ccc3F)CC4)ccn2n1` [monohydrate crystal form C of the sulfate salt] as the molecule, how does the solubility ([1]; Acetone) read?
**A.** The solubility was “S < 2.4 mg/mL”.

**Q.** What about the solubility ([1]; Acetonitrile) of the same molecule?
**A.** The solubility was “S < 2.4 mg/mL”.

**Q.** What about the solubility ([1]; Water) of the same molecule?
**A.** The solubility was “S < 2.4 mg/mL”.

**Q.** And the solubility ([1]; n-Heptane)?
**A.** The solubility was “S < 2.3 mg/mL”.

**Q.** And the hygroscopicity assessment ([3]; DVS, 25° C.)?
**A.** Its hygroscopicity assessment is “slightly hygroscopic”.

**Q.** What about the hygroscopic weight gain ([3]; DVS, 25° C./80% RH) of the same molecule?
**A.** The hygroscopic weight gain was “about 0.2700”.

**Q.** And the “crystal form transition after the DVS test (XRPD)” value ([3]; after DVS test)?
**A.** Its value is “no crystal form transition”.

**Q.** And the Purity [4, 6]?
**A.** The Purity was 99.46%.

**Q.** What about the Purity/initial purity [4, 6] of the same molecule?
**A.** The Purity/initial purity was 99.98%.

**Q.** And the Purity [4, 7]?
**A.** Its Purity is 99.45%.

**Q.** What about the Purity/initial purity [4, 7] of the same molecule?
**A.** The Purity/initial purity was 99.93%.

**Q.** And the Crystal form transition ([4]; 40° C./75% RH/1 week, open)?
**A.** The Crystal form transition was “No”.

**Q.** And the Purity [4, 8]?
**A.** Its Purity is 99.47%.

**Q.** What about the Purity/initial purity [4, 8] of the same molecule?
**A.** The Purity/initial purity was 99.99%.

**Q.** And the Purity [4, 9]?
**A.** The Purity was 99.39%.

**Q.** And the Purity/initial purity [4, 9]?
**A.** The Purity/initial purity was 99.87%.

**Q.** What about the Crystal form transition ([4]; 60° C./sealed/1 week) of the same molecule?
**A.** The Crystal form transition was “No”.

**Q.** And the Initial purity ([4]; listed as Example 4)?
**A.** Its Initial purity is 99.48%.

**Q.** And the Initial purity ([4]; listed as Example 9)?
**A.** Its Initial purity is 99.52%.

**Q.** What about the “change in HPLC purity” value [4, 10] of the same molecule?
**A.** The value was “do not show any significant decrease”.

**Q.** And the “change of crystal form (XRPD)” value [4, 10]?
**A.** Its value is “does not change”.

**Q.** And the “thermodynamic stability range under different water activities” value ([5]; room temperature)?
**A.** The value was “relatively wide”.

**Q.** Which “solid form obtained after stirring in water” value ([5]; water, water activity of about 1) does the source give for `O=S(=O)(O)O` [sulfate] here?
**A.** The value was “free base crystal form A was obtained”.
